pIC50: −log10 of the molar value.
What was measured:
RS4-11 [1] = test: Antiproliferative activity against human RS4;11 cells harbouring p53 wild type assessed as inhibition of cell growth measured after 4 days by WST-8 assay; format: functional, cell-based; settings: RS4-11, 96 h
RS4-11 [2] = test: Antiproliferative activity against human RS4;11 cells harbouring p53 mutant assessed as inhibition of cell growth measured after 4 days by WST-8 assay; format: functional, cell-based; settings: RS4-11, 96 h

pIC50 (RS4-11 [1])	pIC50 (RS4-11 [2])	Structure (SMILES)
8.05	< 6.00	O=C1CCC(N2Cc3c(NCC4CCN(CCNC(=O)c5ccc(NC(=O)[C@@H]6NC7(CCCCC7)[C@@]7(C(=O)Nc8cc(Cl)ccc87)[C@H]6c6cccc(Cl)c6F)cc5)CC4)cccc3C2=O)C(=O)N1 (some centres not stated)
8.15	< 6.00	O=C1CCC(N2Cc3c(C#CCCCNC(=O)c4ccc(NC(=O)[C@@H]5NC6(CCCCC6)[C@@]6(C(=O)Nc7cc(Cl)ccc76)[C@H]5c5cccc(Cl)c5F)cn4)cccc3C2=O)C(=O)N1 (some centres not stated)
7.72	< 6.00	O=C1CCC(N2Cc3c(CCC4CCN(C(=O)c5ccc(NC(=O)[C@@H]6NC7(CCCCC7)[C@@]7(C(=O)Nc8cc(Cl)ccc87)[C@H]6c6cccc(Cl)c6F)cc5)CC4)cccc3C2=O)C(=O)N1 (some centres not stated)
7.30	< 6.00	O=C1CCC(N2Cc3c(NC4CN(CCNC(=O)c5ccc(NC(=O)[C@@H]6NC7(CCCCC7)[C@@]7(C(=O)Nc8cc(Cl)ccc87)[C@H]6c6cccc(Cl)c6F)cc5)C4)cccc3C2=O)C(=O)N1 (some centres not stated)
8.52	8.15	O=C1CCC(N2Cc3c(C#CCCCNC(=O)[C@H]4C[C@H](NC(=O)[C@@H]5NC6(CCCCC6)[C@@]6(C(=O)Nc7cc(Cl)ccc76)[C@H]5c5cccc(Cl)c5F)C4)cccc3C2=O)C(=O)N1 (some centres not stated)
8.70	< 6.00	O=C1CCC(N2Cc3c(C#CCCCNC(=O)c4ccc(NC(=O)[C@@H]5NC6(CCCCC6)[C@@]6(C(=O)Nc7cc(Cl)ccc76)[C@H]5c5cccc(Cl)c5F)nc4)cccc3C2=O)C(=O)N1 (some centres not stated)
8.70	8.52	O=C1CCC(N2Cc3c(C#CCCCNC(=O)C45CCC(NC(=O)[C@@H]6NC7(CCCCC7)[C@@]7(C(=O)Nc8cc(Cl)ccc87)[C@H]6c6cccc(Cl)c6F)(CC4)C5)cccc3C2=O)C(=O)N1 (some centres not stated)
8.10	< 6.00	COc1cc(C(=O)NCCCC#Cc2cccc3c2CN(C2CCC(=O)NC2=O)C3=O)ccc1NC(=O)[C@@H]1NC2(CCCCC2)[C@@]2(C(=O)Nc3cc(Cl)ccc32)[C@H]1c1cccc(Cl)c1F (some centres not stated)
8.10	< 6.00	O=C1CCC(N2Cc3c(NC4CCN(CCNC(=O)c5ccc(NC(=O)[C@@H]6NC7(CCCCC7)[C@@]7(C(=O)Nc8cc(Cl)ccc87)[C@H]6c6cccc(Cl)c6F)cc5)CC4)cccc3C2=O)C(=O)N1 (some centres not stated)
8.52	8.15	O=C1CCC(N2Cc3c(C#CCCCNC(=O)C45CC(NC(=O)[C@@H]6NC7(CCCCC7)[C@@]7(C(=O)Nc8cc(Cl)ccc87)[C@H]6c6cccc(Cl)c6F)(C4)C5)cccc3C2=O)C(=O)N1 (some centres not stated)
6.70	< 6.00	O=C1CCC(N2Cc3c(C#C[C@H]4CC[C@H](NC(=O)c5ccc(NC(=O)[C@@H]6NC7(CCCCC7)[C@@]7(C(=O)Nc8cc(Cl)ccc87)[C@H]6c6cccc(Cl)c6F)cc5)CC4)cccc3C2=O)C(=O)N1 (some centres not stated)
< 6.00	< 6.00	O=C1CCC(N2Cc3c(C#CCCCNC(=O)C4CCN(C(=O)[C@@H]5NC6(CCCCC6)[C@@]6(C(=O)Nc7cc(Cl)ccc76)C5c5cccc(Cl)c5F)CC4)cccc3C2=O)C(=O)N1 (single isomer, unassigned)
7.72	< 6.00	O=C1CCC(N2Cc3c(NCC4CCN(C(=O)c5ccc(NC(=O)[C@@H]6NC7(CCCCC7)[C@@]7(C(=O)Nc8cc(Cl)ccc87)[C@H]6c6cccc(Cl)c6F)cc5)CC4)cccc3C2=O)C(=O)N1 (some centres not stated)
7.72	7.48	O=C1CCC(N2Cc3c(NC4CCN(C(=O)c5ccc(NC(=O)[C@@H]6NC7(CCCCC7)[C@@]7(C(=O)Nc8cc(Cl)ccc87)[C@H]6c6cccc(Cl)c6F)cc5)CC4)cccc3C2=O)C(=O)N1 (some centres not stated)
< 6.00	< 6.00	O=C1CCC(N2Cc3c(C#CCCCCN4CCC(NC(=O)C5CCC(NC(=O)[C@@H]6NC7(CCCCC7)[C@@]7(C(=O)Nc8cc(Cl)ccc87)[C@H]6c6cccc(Cl)c6F)CC5)CC4)cccc3C2=O)C(=O)N1 (some centres not stated)
8.10	< 6.00	O=C1CCC(N2Cc3c(C#CCCCNC(=O)c4ccc(NC(=O)[C@@H]5NC6(CCCCC6)[C@@]6(C(=O)Nc7cc(Cl)ccc76)[C@H]5c5cccc(Cl)c5F)c(F)c4)cccc3C2=O)C(=O)N1 (some centres not stated)

Source: ChEMBL document CHEMBL6083271 (J Med Chem, 2024)
